Data reported in patent US11660300B2, “Method of maintaining oral health in animals” (Boehringer Ingelheim Animal Health USA Inc., priority 2006, dated 2023).

Assays:
Assay type in all cases: in vivo
[1] = tested on: gingivitis; assay: Bleeding on probing (gingivitis) in beagle dogs given delmopinol dog snack; conditions: for Number of sites with gingival bleeding at the buccal surfaces: dogs 1-4 and Sum
Experimental: (§1) A study was carried out to investigate the effect of dog snacks containing delmopinol on gingivitis and calculus formation in beagle dogs. Eight female dogs were used in the study. […] During a pre-experimental period of four weeks, the teeth in the upper jaws of all dogs were scaled and polished professionally with a rubber cup, pumice and water, on a weekly basis. The teeth of the upper jaws were also thoroughly brushed with a toothbrush and water, for 2 minutes daily. The teeth in the lower jaws were not cleaned. During this pre-experimental period the dogs were fed a soft gingivitis-inducing diet. Using these procedures, two different clinical conditions prevailed in the dogs at the end of the pre-experimental period: in the upper jaw the gingiva was clinically healthy while in the lower jaws gingivitis prevailed. […] In the upper jaws, the presence of plaque and gingivitis was measured at the buccal surfaces of canines, first, second, third, fourth premolars and first molars. In the lower jaws the measurements were undertaken at the buccal surfaces of canines and first molars, in total […] were examined clinically. 12 surfaces were clinically healthy prior to the experimental period and 4 surfaces were not maintained with oral hygiene measures. All experimental procedures, (except the tooth brushing during the pre-experimental period) were performed with the dogs anaesthetized by intravenous Pentothal (Abbot, Belgium). […] The various measurements were taken on days 0, 14 and 28. Clinical photos were taken of the upper jaws at the same occasions as the measurements. Bleeding on probing was scored according to Löe, H and Silness, J (1963) Periodontal disease in pregnancy. Prevalence and severity. Acta Odontologica Scandinavia 21, 533-551. Presence of gingivitis was registered if bleeding occurred within 20 seconds following gentle probing of the buccal gingival margin.

[2] = tested on: calculus formation; assay: Calculus formation in beagle dogs given delmopinol dog snack; conditions: for Number of teeth with calculus on the buccal surfaces of the teeth of the upper jaw: dogs 1-4 and Sum
Experimental: as §1, with “Presence or absence of calculus was noted” for “Bleeding”, “the buccal surfaces” for “probing was scored according to Löe, H and Silness, J (1963) Periodontal disease in pregnancy. Prevalence and severity. Acta Odontologica Scandinavia 21, 533-551. Presence of gingivitis was registered if bleeding occurred within 20 seconds following gentle probing”, “teeth in the upper jaws.” for “buccal gingival margin.”

[3] = tested on: dental plaque; assay: Presence of dental plaque (erythrosine staining) in beagle dogs given delmopinol dog snack; conditions: for Number of sites with presence of dental plaque on the buccal surfaces: upper jaw (UJ), dogs 1-4 and Sum
Experimental: as §1, with “The presence of plaque” for “Bleeding on probing”, “following staining of the teeth with erythrosine dye. Plaque was noted if stained dental plaque was” for “according to Löe, H and Silness, J (1963) Periodontal disease”, “contact with” for “pregnancy. Prevalence and severity. Acta Odontologica Scandinavia 21, 533-551. Presence of gingivitis was registered if bleeding occurred within 20 seconds following gentle probing of”

Structure (SMILES): CCCC(CCC)CCCC1COCCN1CCO (stereo not drawn) [Delmopinol, 3-(4-propyl-heptyl)-4-(2-hydroxyethyl)morpholine]
- Number of sites with gingival bleeding at the buccal surfaces ([1]; Day 0 (baseline), lower jaw (LJ), n = 16): 15 sites
- Number of sites with gingival bleeding at the buccal surfaces ([1]; Day 0 (baseline), upper jaw (UJ), n = 48): one
- Number of sites with gingival bleeding at the buccal surfaces ([1]; Day 14, lower jaw (LJ), n = 16): five
- Number of sites with gingival bleeding at the buccal surfaces ([1]; Day 14, upper jaw (UJ), n = 48): 13 sites
- Number of sites with gingival bleeding at the buccal surfaces ([1]; Day 28, lower jaw (LJ), n = 16): 12 sites
- Number of sites with gingival bleeding at the buccal surfaces ([1]; Day 28, upper jaw (UJ), n = 48): 21 sites
- reduction of established gingivitis ([1]; delmopinol added in the snack, snack alone 50%, lower jaw, day 0 to day 14): 69%
- increase of inflammation after stopping pre-experimental oral hygiene, versus control group ([1]; paired t-test p=0.05): significantly less
- Number of teeth with calculus on the buccal surfaces of the teeth of the upper jaw ([2]; Day 0 (baseline), n = 48 measured sites): 0 teeth
- Number of teeth with calculus on the buccal surfaces of the teeth of the upper jaw ([2]; Day 0 (baseline), n = 48 measured sites, listed as delmopinol): None
- Number of teeth with calculus on the buccal surfaces of the teeth of the upper jaw ([2]; Day 14, n = 48 measured sites): 6 teeth
- Number of teeth with calculus on the buccal surfaces of the teeth of the upper jaw ([2]; Day 28, n = 48 measured sites): 37 teeth
- calculus formation versus control ([2]; in the presence of dental plaque and with a calculus-promoting soft diet): strongly reduced
- Number of sites with presence of dental plaque on the buccal surfaces ([3]; Day 0 (baseline), n = 48 sites in sum): 0 sites
- Number of sites with presence of dental plaque on the buccal surfaces ([3]; Day 0 (baseline), n = 48 sites in sum, listed as delmopinol): plaque free
- reduction in the presence of dental plaque relative the control dogs ([3]; Day 14, upper jaw): around 20%
- Number of sites with presence of dental plaque on the buccal surfaces ([3]; Day 28 (14 days after last snack), n = 48): all teeth
- plaque accumulation ([3]; snacks with or without the tested component): did not alter
